Where “and” joins values, the source holds several entries; their conditions need not be identical. Equal entries are not always repeated.
System: embryonic stages of S. digitata
Assay: Intra cellular expression of CED-4 protein, flow cytometry
Format: cell-based, Setaria digitata
Settings: 24 hr
Protocol: Adult female filarial worms Setaria digitata were collected from the peritoneum of cattle, slaughtered at a nearby abattoir in sterile Hanks Balanced Salt Solution (HBSS) medium (Sigma H 2387-1L) and transported to the laboratory in a sterile container. The medium containing 1% glucose (Sigma G 7528), Penicillin 100 units/ml, Streptomycin 100 μg/ml (Sigma P 4333). And Amphotericin-B 0.25 μg/ml (Sigma A 2942) was buffered with NaHCO3 (Sigma S 5761). About 5 to 7 worms were taken in a petridish, washed three times in medium, dissected into small pieces in 10 ml of medium under sterile conditions and incubated at 37° C. for 30 minutes to allow the release of embryonic stages (eggs and microfilariae) into the medium. The embryonic stages were harvested into sterile 15 ml. centrifuge tubes and washed three times by centrifuging at 300 g for 10 minutes each with medium and the final pellet was suspended in 1 ml. of RPMI-1640 medium (Sigma R 8005) supplemented with 10% FBS (Sigma F 2442) The number of embryonic stages of S. digitata in the above preparation were counted using light microscope, and the suspension was taken in RPMI-1640 medium containing 10% FBS at 1×10^5 embryonic stages/ml. One ml. each was dispensed into individual wells of a 24 well tissue culture plate. One set of wells was taken as untreated control containing only medium with 10% FBS. […] Motility of the Mf was scored under an inverted microscope. After appropriate treatment and incubation, each set of the cultured embryonic stages of S. digitata were harvested from the 24 well tissue culture plate separately in 15 ml. sterile centrifuge tubes, washed with PBS twice and stained as per requirement following manufacturer's instructions as described below. This was followed by two times washing with PBS and final suspension of the stained embryonic stages was taken in 0.5 ml of sheath fluid (BD Biosciences 342003) before their acquisition in the flow cytometer (BD FACS Calibur, Becten and Dickinson, USA). Analysis was performed on 10,000-acquired events depicted as Dot Plots and Histogram Plots using Cellquest Pro soft ware. All plots were representative of at least 3 experiments. The distinctly clustered populations obtained consistently in the Dot plots for the intra uterine embryonic stages of S. digitata (FIG. 1 a) were gated for Mfs (R-1) and eggs (R-2 and R-3) and analyzed for different assays for apoptosis as described below. After in vitro culture for 24 hours with apoptosis inducing reagents the embryonic stages were harvested in 15 ml. sterile centrifuge tubes and fixed for 60 minutes at 0° C. in 1% paraformaldehyde (Sigma P 6148) in PBS. The suspension was washed first with PBS and then with 1× permeabilisation buffer (eBioscience 00-8333-56) and finally resuspended in 100 μl of 1× permeabilisation buffer at 1×10^5 embryonic stages per ml. The intracellular expression of CED-4 was scored by incubation of the fixed and permeabilised embryonic stages with primary goat antibodies—anti CED-4 (Santacruz sc-9193) followed by probing with PE conjugated secondary anti goat IgG-PE (Santacruz sc-3747) antibodies. Incubation of both primary and secondary antibodies (both 1/100 diluted) was done successively in 1× permeabilisation buffer (e Bioscience 00-8333-56) for 1 hr and 45 minutes respectively. The suspension of stained embryonic stages was then washed with PBS twice and finally reading was taken by flow cytometry or confocal microscopy.

Row | SMILES | GMI (Geometric Mean Intensity) of Fluorescence, CED-4 Expression (Eggs, 10 μM) | GMI (Geometric Mean Intensity) of Fluorescence, CED-4 Expression (Microfilariae, 10 μM) | GMI (Geometric Mean Intensity) of Fluorescence, CED-4 Expression (Eggs, 1 μM) | GMI (Geometric Mean Intensity) of Fluorescence, CED-4 Expression (Microfilariae, 1 μM)
1 | OO [H2O2] | 99.36 and 100.32 and 95.29 | 15.72 and 17.33 and 16.26 | – | –
2 | CC1=CC(=O)c2c(O)cccc2C1=O [Plumbagin] | 209.76 and 213.57 and 210.32 | 35.97 and 38.27 and 33.39 | – | –
3 | CN[C@@H]1C[C@H]2O[C@@](C)([C@@H]1OC)n1c3ccccc3c3c4c(c5c6ccccc6n2c5c31)C(=O)NC4 [Staurosporine] | – | – | 95.67 and 97.28 and 96.32 | 9.01 and 9.92 and 8.25
